Laboratory results taken from patent US8324176B2, “Pyrazole derivatives, medicinal composition containing the same, medicinal use thereof, and intermediate for production thereof” (Kissei Pharmaceutical Co., Ltd., priority 2002, dated 2012).

Columns and labels:
human SGLT1 = target: T1, human SGLT1 (Homo sapiens, UniProt P13866); assay: Assay for inhibitory effects on human SGLT1 activity (uptake of methyl-α-D-glucopyranoside in CS1-5-11D cells); format: cell-based; details: CHO-K1 cells stably expressing human SGLT1 (CS1-5-11D); 1 mM α-MG uptake, 37° C., 1 hour
T1 construct: expressed in transfected cells
T1 sequence (P13866 1-664): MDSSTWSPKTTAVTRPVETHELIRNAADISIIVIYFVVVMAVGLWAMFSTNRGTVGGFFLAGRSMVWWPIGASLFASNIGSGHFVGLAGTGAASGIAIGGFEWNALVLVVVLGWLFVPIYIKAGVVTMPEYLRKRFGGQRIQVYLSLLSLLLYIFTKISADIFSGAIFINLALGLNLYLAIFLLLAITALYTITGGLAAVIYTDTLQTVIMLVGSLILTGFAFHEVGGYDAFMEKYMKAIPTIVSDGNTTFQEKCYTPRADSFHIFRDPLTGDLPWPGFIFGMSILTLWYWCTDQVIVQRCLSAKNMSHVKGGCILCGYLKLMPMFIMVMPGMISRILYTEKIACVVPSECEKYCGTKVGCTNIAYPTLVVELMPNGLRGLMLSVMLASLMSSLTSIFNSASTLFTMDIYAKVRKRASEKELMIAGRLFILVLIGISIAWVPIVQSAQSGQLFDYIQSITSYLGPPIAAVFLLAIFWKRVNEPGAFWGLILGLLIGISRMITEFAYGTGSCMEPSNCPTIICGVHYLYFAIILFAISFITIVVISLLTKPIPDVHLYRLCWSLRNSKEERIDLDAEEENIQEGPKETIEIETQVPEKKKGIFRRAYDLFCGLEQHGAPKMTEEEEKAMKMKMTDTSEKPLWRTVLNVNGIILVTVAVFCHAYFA
Description: Assay for Inhibitory Effects on Human SGLT1 Activity
1) Cloning and Construction of the Vector Expressing Human SGLT1
The cDNA library was prepared for PCR amplification by reverse transcription from total RNA deprived from human small intestine (Ori gene) using oligo-dT as a primer.
2) Establishment of Cell Line Stably Expressing Human SGLT1
The expression vector of human SGLT1 was digested by Sca I into a linear DNA. The linear DNA was transfected into CHO-K1 cells by means of lipofection (Effectene Transfection Reagent: QIAGEN). Neomycin resistant cell lines were selected by culture in the medium containing G418 (1 mg/mL, LIFE TECHNOLOGIES), and then the activity against the uptake of methyl-α-D-glucopyranoside was measured by the method described below. […] CS1-5-11D cells were cultured in the presence of G418 at 200 μg/mL.
3) Measurement of the Inhibitory Activity Against the Uptake of Methyl-α-D-glucopyranoside (α-MG)
CS1-5-11D cells were seeded into a 96-well culture plate at a density of 3×10^4 cells/well and cultured for 2 days, and were used in the uptake assay. A mixture of non-labeled (Sigma) and ^14C-labeled α-MG (Amersham Pharmcia Biotec) was added to the uptake buffer (pH 7.4: containing 140 mM sodium chloride, 2 mM potassium chloride, 1 mM calcium chloride, 1 mM magnesium chloride, 10 mM 2-[4-(2-hydroxyethyl)-1-piperazinyl]ethane sulfonic acid, and 5 mM tris(hydroxymethyl)aminomethane) at the final concentration of 1 mM. A test compound was dissolved in dimethyl sulfoxide, and then appropriately diluted with distilled water. The test compound solution was added to the uptake buffer containing 1 mM α-MG, and designated as a measurement buffer. For the control group, the measurement buffer without any test compound was prepared. For measuring the basal uptake, a basal uptake measurement buffer which contains 140 mM chorine chloride instead of sodium chloride was prepared. After removing the culture medium of CS1-5-11D cells, 180 μL of the pre-treatment buffer (the basal uptake buffer without α-MG) was added to each well and incubated at 37° C. for 10 minutes. After repeating the same treatment, the pre-treatment buffer was removed. To each well was added 75 μL of the measurement buffer or the basal uptake buffer was added and incubated at 37° C. for 1 hour. After removing the measurement buffer, cells were washed twice with 180 μL per well of the washing buffer (the basal uptake buffer containing 10 mM non-labeled α-MG). The cells were solubilized by 75 μL per well of 0.2 mol/L sodium hydroxide. The cell lysates were transferred into PicoPlates (Packard), and then added 150 μL of MicroScint-40 (Packard) and mixed. Radioactivity was measured by means of micro-scintillation counter TopCount (Packard). One hundred was set to the difference between the uptake in the control group and the basal uptake, and the uptake of methyl α-D-glucopyranoside a teach drug concentration were calculated.

diabetic rats = assay: Assay for inhibitory effects on blood glucose level increase in rats (liquid meal tolerance test); format: in vivo, rat; details: test compound 1 mg/kg orally, liquid meal 17.25 kcal/kg, mean±S.E.; for Plasma glucose concentration 0.5 h: 0.5 hour after the drug administration; for Plasma glucose concentration 1 h: 1 hour after the drug administration
Description: Assay for Inhibitory Effects on Blood Glucose Level Increase in Rats
1) Preparation of Diabetic Rat Model
Male wistar rats (Japan Charles River), aged 8 weeks old, were injected nicotinamide (230 mg/kg) intraperitoneally. Fifteen minutes after injection, they were injected streptozotocin (85 mg/kg) intravenously from tail vain under anesthesia with ether. After a week, rats were fasted overnight and then glucose tolerance test (2 g/kg) was done.
2) Liquid Meal Tolerance Test
After overnight fasted, the diabetic rats were orally administered a test compound (1 mg/kg), which was dissolved in distilled water or 0.5% aqueous carboxymethylcellulose solution, in the drug-treating group, or distilled water or 0.5% aqueous carboxymethylcellulose solution alone in a control group. Immediately after the compound administration, 17.25 kcal/kg of liquid meal (No. 038, Control diet, assorted with dextrin and maltose; Oriental Yeast Co., Ltd.) was loaded orally. The blood was collected from tail artery immediately before and after administration with the time course, and treated with heparin immediately. The blood was centrifuged, and the plasma was collected to quantify the plasma glucose concentration by glucose oxidase method. The values in the Table are presented as the mean±S.E.

SMILES | IC50 (human SGLT1) | Plasma glucose concentration 0.5 h (diabetic rats) | Plasma glucose concentration 1 h (diabetic rats)
CC(C)c1[nH]nc(O[C@@H]2O[C@H](CO)[C@@H](O)[C@H](O)[C@H]2O)c1Cc1ccc(OCCCN)cc1 [Example 6, 4-{[4-(3-Aminopropoxy)phenyl]methyl}-3-(β-D-glucopyranosyloxy)-5-isopropyl-1H-pyrazole] | 304 nM | 126 ± 12 mg/dL | 140 ± 13 mg/dL
CC(C)c1[nH]nc(O[C@@H]2O[C@H](CO)[C@@H](O)[C@H](O)[C@H]2O)c1Cc1ccc(OCCCNS(C)(=O)=O)cc1 [Example 10, 3-(β-D-Glucopyranosyloxy)-5-isopropyl-4-({4-[3-(methanesulfonylamino)propoxy]phenyl}methyl)-1H-pyrazole] | 169 nM | 145 ± 5 mg/dL | 164 ± 6 mg/dL
CC(C)c1[nH]nc(O[C@@H]2O[C@H](CO)[C@@H](O)[C@H](O)[C@H]2O)c1Cc1ccc(OCCCNC(=O)CN)cc1 [Example 13, 4-({4-[3-(2-Aminoacetylamino)propoxy]phenyl}methyl)-3-(β-D-glucopyranosyloxy)-5-isopropyl-1H-pyrazole] | 267 nM | 127 ± 7 mg/dL | 135 ± 7 mg/dL
CC(C)c1[nH]nc(O[C@@H]2O[C@H](CO)[C@@H](O)[C@H](O)[C@H]2O)c1Cc1ccc(OCCCNC(=O)NC(C)(CO)CO)cc1 [Example 21, 3-(β-D-Glucopyranosyloxy)-4-{[4-(3-{3-[2-hydroxy-1-(hydroxymethyl)-1-(methyl)ethyl]ureido}propoxy)phenyl]-methyl}-5-isopropyl-1H-pyrazole] | 127 nM | 211 ± 22 mg/dL | 242 ± 35 mg/dL
CC(C)c1[nH]nc(O[C@@H]2O[C@H](CO)[C@@H](O)[C@H](O)[C@H]2O)c1Cc1ccc(OCCCNC(=O)NC(C)(C)CO)cc1 [Example 24, 3-(β-D-Glucopyranosyloxy)-4-{[4-(3-{3-[2-hydroxy-1,1-di(methyl)ethyl]ureido}propoxy)phenyl]methyl}-5-isopropyl-1H-pyrazole] | 61 nM | 210 ± 33 mg/dL | 228 ± 50 mg/dL
Cc1cc(OCCCN2CCN(CCO)CC2)ccc1Cc1c(O[C@@H]2O[C@H](CO)[C@@H](O)[C@H](O)[C@H]2O)n[nH]c1C(C)C [Example 35, 3-(β-D-Glucopyranosyloxy)-4-[(4-{3-[4-(2-hydroxyethyl)piperazin-1-yl]propoxy}-2-methylphenyl)methyl]-5-isopropyl-1H-pyrazole] | 160 nM | 188 ± 16 mg/dL | 229 ± 25 mg/dL
CC(C)c1[nH]nc(O[C@@H]2O[C@H](CO)[C@@H](O)[C@H](O)[C@H]2O)c1Cc1ccc(OCCCNC(=NC#N)NCCO)cc1 [Example 37, 4-[(4-{3-[2-Cyano-3-(2-hydroxyethyl)guanidino]propoxy}phenyl)methyl]-3-(β-D-glucopyranosyloxy)-5-isopropyl-1H-pyrazole] | 158 nM | 231 ± 21 mg/dL | 286 ± 31 mg/dL
Cc1cc(OCCCNCC(N)=O)ccc1Cc1c(O[C@@H]2O[C@H](CO)[C@@H](O)[C@H](O)[C@H]2O)n[nH]c1C(C)C [Example 45] | 68 nM | 169 ± 18 mg/dL | 182 ± 27 mg/dL
Cc1cc(OCCNCC(N)=O)ccc1Cc1c(O[C@@H]2O[C@H](CO)[C@@H](O)[C@H](O)[C@H]2O)n[nH]c1C(C)C [Example 49, 4-({4-[2-(Carbamoylmethylamino)ethoxy]-2-methylphenyl}methyl)-3-(1-D-glucopyranosyloxy)-5-isopropyl-1H-pyrazole] | 148 nM | – | –
Cc1cc(OCCNCCC(N)=O)ccc1Cc1c(O[C@@H]2O[C@H](CO)[C@@H](O)[C@H](O)[C@H]2O)n[nH]c1C(C)C [Example 50] | 159 nM | – | –
Cc1cc(OCCCNC(C)(C)C(N)=O)ccc1Cc1c(O[C@@H]2O[C@H](CO)[C@@H](O)[C@H](O)[C@H]2O)n[nH]c1C(C)C [Example 51, 4-[(4-{3-[1-Carbamoyl-1-(methyl)ethylamino]propoxy}-2-methylphenyl)methyl]-3-(β-D-glucopyranosyloxy)-5-isopropyl-1H-pyrazole] | 22 nM | – | –
Cc1cc(OCCCNC(=N)N)ccc1Cc1c(O[C@@H]2O[C@H](CO)[C@@H](O)[C@H](O)[C@H]2O)n[nH]c1C(C)C [Example 55, 3-(β-D-Glucopyranosyloxy)-4-{[4-(3-guanidinopropoxy)-2-methylphenyl]methyl}-5-isopropyl-1H-pyrazole] | 98 nM | 200 ± 16 mg/dL | 211 ± 18 mg/dL
Cc1cc(OCCCNC(C)(C)CO)ccc1Cc1c(O[C@@H]2O[C@H](CO)[C@@H](O)[C@H](O)[C@H]2O)n[nH]c1C(C)C [Example 57, 3-(β-D-Glucopyranosyloxy)-4-[(4-(3-[2-hydroxy-1,1-di(methyl)ethylamino]propoxy)-2-methylphenyl)methyl]-5-isopropyl-1H-pyrazole] | 43 nM | – | –
Cc1cc(OCCCNCCO)ccc1Cc1c(O[C@@H]2O[C@H](CO)[C@@H](O)[C@H](O)[C@H]2O)n[nH]c1C(C)C [Example 58, 3-(β-D-Glucopyranosyloxy)-4-({4-[3-(2-hydroxyethylamino)propoxy]-2-methylphenyl}methyl)-5-isopropyl-1H-pyrazole] | 100 nM | – | –
CC(C)c1[nH]nc(O[C@@H]2O[C@H](CO)[C@@H](O)[C@H](O)[C@H]2O)c1Cc1ccc(OCCCNC(C)(C)CO)cc1 [Example 61, 3-(β-D-Glucopyranosyloxy)-4-[(4-(3-[2-hydroxy-1,1-di(methyl)ethylamino]propoxy)phenyl)methyl]-5-isopropyl-1H-pyrazole] | 199 nM | – | –
Cc1cc(OCCNC(CO)CO)ccc1Cc1c(O[C@@H]2O[C@H](CO)[C@@H](O)[C@H](O)[C@H]2O)n[nH]c1C(C)C [Example 62, 3-(β-D-Glucopyranosyloxy)-4-[(4-{2-[2-hydroxy-1-(hydroxymethyl)ethylamino]ethoxy}-2-methylphenyl)methyl]-5-isopropyl-1H-pyrazole] | 138 nM | – | –
Cc1cc(OCCNCCO)ccc1Cc1c(O[C@@H]2O[C@H](CO)[C@@H](O)[C@H](O)[C@H]2O)n[nH]c1C(C)C [Example 63, 3-(β-D-Glucopyranosyloxy)-4-({4-[2-(2-hydroxyethylamino)ethoxy]-2-methylphenyl}methyl)-5-isopropyl-1H-pyrazole] | 322 nM | – | –
